ChEMBL document CHEMBL1137072, “Peptide deformylase inhibitors with activity against respiratory tract pathogens” (Bioorg Med Chem Lett, 2004)
≈ marks a conversion by molar mass, not a printed value. Blank lines part the entries; values can stand above or below the compound they belong to.

Legend:
[1] = target: T1, Peptide deformylase (Escherichia coli, UniProt Q9JN24); assay: Inhibitory activity against Escherichia coli peptide deformylase (PDF) Nickel containing enzyme
T1 sequence (Q9JN24 whole entry): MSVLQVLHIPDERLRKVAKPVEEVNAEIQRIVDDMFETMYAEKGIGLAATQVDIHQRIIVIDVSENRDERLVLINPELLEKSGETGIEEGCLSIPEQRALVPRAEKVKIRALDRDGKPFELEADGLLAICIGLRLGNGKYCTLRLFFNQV

[2] = tested on: Haemophilus influenzae; assay: Minimum inhibitory concentration required for primary screening against in-house strain of Haemophilus influenzae tested in vitro; Range- 0.25-2; type: functional
[3] = tested on: Moraxella catarrhalis; assay: Minimum inhibitory concentration required for primary screening against in-house strain of Moraxella catarrhalis tested in vitro; type: functional
[4] = tested on: Streptococcus pneumoniae; assay: Minimum inhibitory concentration required for primary screening against in-house strain of Streptococcus pneumoniae tested in vitro; Range- <0.125-0.25; type: functional
[5] = tested on: Haemophilus influenzae; assay: Minimum inhibitory concentration required for primary screening against in-house strain of Haemophilus influenzae tested in vitro; Range- 0.12-16; type: functional
[6] = tested on: Streptococcus pneumoniae; assay: Minimum inhibitory concentration required for primary screening against in-house strain of Streptococcus pneumoniae tested in vitro; Range- 0.008-1; type: functional
[7] = tested on: Moraxella catarrhalis; assay: Minimum inhibitory concentration required for primary screening against in-house strain of Moraxella catarrhalis tested in vitro; Range- 0.008-0.12; type: functional
[8] = tested on: Streptococcus pneumoniae; assay: Minimum inhibitory concentration required for primary screening against in-house strain of Streptococcus pneumoniae tested in vitro; Range- 0.5-1; type: functional
[9] = tested on: Streptococcus pneumoniae; assay: Minimum inhibitory concentration required for primary screening against in-house strain of Streptococcus pneumoniae tested in vitro; Range- 0.25-0.5; type: functional
[10] = tested on: Haemophilus influenzae; assay: Minimum inhibitory concentration required for primary screening against in-house strain of Haemophilus influenzae tested in vitro; Range- 0.5-2; type: functional
[11] = tested on: Staphylococcus capitis; assay: Minimum inhibitory concentration required for primary screening against in-house strain of Staphylococcus capitis tested in vitro; type: functional
[12] = tested on: Streptococcus pneumoniae; assay: Minimum inhibitory concentration required for primary screening against in-house strain of Streptococcus pneumoniae tested in vitro; type: functional
[13] = tested on: Moraxella catarrhalis; assay: Minimum inhibitory concentration required for primary screening against in-house strain of Moraxella catarrhalis tested in vitro; Range = 0.125-0.25; type: functional
[14] = tested on: Haemophilus influenzae; assay: Minimum inhibitory concentration required for primary screening against in-house strain of Haemophilus influenzae tested in vitro; Range- 0.5-4; type: functional

Compound: CCCC[C@H](CN(O)C=O)C(=O)N[C@H](C(=O)c1ccc(N2CCOCC2)cc1)C(C)(C)C
IC50 [1]: 5 nM

Compound: CC(C)(C)[C@H](NC(=O)[C@H](CC1CCCC1)CN(O)C=O)C(=O)c1ccc(N2CCC[C@H]2CO)cc1
MIC [2]: < 2 mg/L
MIC [3]: < 0.125 mg/L
MIC [4]: < 0.25 mg/L
IC50 [1]: 7 nM

MIC90 [5]: 1 mg/L
MIC90 [6]: 1 mg/L
MIC90 [7]: 0.12 mg/L
Compound: CC1(C)S[C@@H]2[C@H](NC(=O)[C@H](N)c3ccc(O)cc3)C(=O)N2[C@H]1C(=O)O.O=C(O)[C@H]1/C(=C/CO)O[C@@H]2CC(=O)N21

Compound: CC(C)(C)[C@H](NC(=O)[C@H](CC1CCCC1)CN(O)C=O)C(=O)c1cc(F)c(F)cc1N1CCN(CCO)CC1
MIC [2]: < 2 mg/L
MIC [3]: < 0.125 mg/L
MIC [8]: < 1 mg/L
IC50 [1]: 2 nM

Compound: CC(C)(C)[C@H](NC(=O)[C@H](CC1CCCC1)CN(O)C=O)C(=O)c1ccc(N2CCN(CCN3CCOCC3)CC2)cc1
MIC [3]: < 0.125 mg/L
MIC [9]: < 0.5 mg/L
MIC [10]: < 2 mg/L
IC50 [1]: 2 nM

Compound: CCCC[C@H](CN(O)C=O)C(=O)N[C@H](C(=O)c1ccc(N)cc1)C(C)(C)C
MIC [11]: 12 µM (≈ 4.53 µg/mL)
IC50 [1]: 8 nM

MIC [3]: < 0.125 mg/L
MIC [12]: 0.25 mg/L (≈ 0.477 µM)
MIC [10]: < 2 mg/L
Compound: CC(C)(C)[C@H](NC(=O)[C@H](CC1CCCC1)CN(O)C=O)C(=O)c1cc(F)c(F)cc1N1CCC[C@H]1CO

Compound: CCCC[C@H](CN(O)C=O)C(=O)N[C@H](C(=O)c1ccco1)C(C)(C)C
IC50 [1]: 5 nM

Compound: CCCC[C@H](CN(O)C=O)C(=O)N[C@H](C(=O)c1ccc(O)cc1)C(C)(C)C
IC50 [1]: 8 nM

Compound: CC(C)(C)[C@H](NC(=O)[C@H](CC1CCCC1)CN(O)C=O)C(=O)c1cc(F)c(F)cc1N1CCN(CCN2CCCC2)CC1
MIC [13]: < 0.25 mg/L
MIC [9]: < 0.5 mg/L
MIC [14]: < 4 mg/L
IC50 [1]: 2 nM
